Test results reported in ChEMBL document CHEMBL3887008, “Pyrrolinone carboxamide compounds useful as endothelial lipase inhibitors” (2016).

These compounds were tested against T1, Endothelial lipase (Homo sapiens, UniProt Q9Y5X9) (assay: Enzymatic Assay: Endothelial lipase activity was measured using a fluorescent substrate, A10070, (Invitrogen, CA) doped into an artificial vesicle containing DMPG (Avanti Polar Lipids) as the excipient. Vesicles were prepared by combining 285 uL of 1 mMDMPG in a 1:1 mixture of MeOH and CHCl3 with 15 uL of 1 mM A10070 in a 1:1 mixture of MeOH and CHCl3. The mixture was dried under nitrogen and resuspended in 150 uL of 50 mM HEPES pH 8.0 buffer containing 100 mM NaCl and 0.2 mM EDTA. The sample was allowed to sit at rt for 15 min and then was sonicated 3x4 mins on ice with a Branson Sonicator using duty cycle 1. This preparation provides vesicles with a mole fraction of 0.05 for the FRET substrate.The enzymatic assay was measured using white, opaque 96-well half area plates. Each well contained 60 uL of assay buffer (50 mM HEPES pH 8.0, 50 mM NaCl and 1 mM CaCl2) and 2 ul of a DMSO solution containing compound of interest. Conditioned media obtained from HT-1080 cells, which were transformed by RAGE technology (Athersys) to overexpress endogenous EL, was added and the reaction was allowed to incubate for 20 min at 37deg; C. with gentle agitation. The reaction was started by the addition of 20 uL of a 1:4 dilution of vesicles. The final total reaction volume was 100 uL. The reaction rates were measured on a Gemini plate reader with an excitation wavelength of 488 nm and a emission of 530 nm. Readings were taken every 20 seconds for 10 min with agitation between each reading. The slope of the linear portion of the readout was used to calculate the rate of the reaction.).
T1 sequence (Q9Y5X9 whole entry): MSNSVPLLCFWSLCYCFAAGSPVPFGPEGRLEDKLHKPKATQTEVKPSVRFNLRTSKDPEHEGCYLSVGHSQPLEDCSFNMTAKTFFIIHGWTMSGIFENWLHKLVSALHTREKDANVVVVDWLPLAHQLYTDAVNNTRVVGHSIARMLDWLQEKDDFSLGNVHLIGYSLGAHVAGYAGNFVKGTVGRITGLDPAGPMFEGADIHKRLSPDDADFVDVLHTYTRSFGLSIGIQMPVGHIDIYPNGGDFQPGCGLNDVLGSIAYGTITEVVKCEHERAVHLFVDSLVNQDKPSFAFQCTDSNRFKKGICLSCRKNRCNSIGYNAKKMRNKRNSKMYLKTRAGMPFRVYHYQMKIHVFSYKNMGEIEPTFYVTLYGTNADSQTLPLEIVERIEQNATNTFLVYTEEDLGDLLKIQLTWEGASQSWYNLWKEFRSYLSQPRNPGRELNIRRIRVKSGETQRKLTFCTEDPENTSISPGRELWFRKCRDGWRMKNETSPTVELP
Assay type: cell-based

Which IC50 does the source give for `CC(=O)Nc1ccc(-c2cccc([C@@H](C)NC(=O)C3=C(O)C(=O)N(c4ccc(F)cc4F)C3)c2)cc1` here?
Its IC50 is 0.0271 µM.

With `CN1CC(C(=O)NCc2ccc(Oc3ccc(Cl)c(Cl)c3)cc2)=C(O)C1=O` as the compound, how does the IC50 read?
Its IC50 is 0.027 µM.

For `CN1CC(C(=O)NCCCOc2cccc(Oc3ccccc3)c2)=C(O)C1=O`, which IC50 is on record?
Its IC50 is 0.0221 µM.

How did the IC50 turn out when `CN1CC(C(=O)NCc2ccc(Oc3ccccc3)cc2)=C(O)C1=O` was run?
Its IC50 is 0.043 µM.
